# Experimental data from patent US6207411A, “Bacteriocins” (priority 1995, dated 2001).
# Columns and labels:
# [1] = test system: four cariogenic streptococci; experiment: Sensitivity of oral streptococci; assay type: cell-based; settings: four cariogenic strains from infected patients
# Experimental: Four cariogenic streptococcal strains isolated from infected patients were grown overnight at 30° C. in Brain Heart Infusion broth. These strains were obtained from Dr. Ger Fitzgerald, University College Cork. The relative sensitivity of each of these strains to the bacteriocin was then determined in comparison to L. lactis HP.
# [2] = test system: L. lactis AM2; experiment: Bacteriocin assayed directly in cheese samples; parameters: species or system Lactococcus lactis
# Experimental: Bacteriocin activity was assayed from cheese samples as follows. Cheese samples were initially macerated in equal volumes of distilled water in a stomacher (Lab-Blender 400) for 15 min and heated to 80° C. for 10 min. Then aliquots of 50 μl were dispensed in wells and bacteriocin activity calculated as the difference in area of the zone of inhibition (in mm2) and the area of the well (as outlined previously).
# Since then we have assayed the bacteriocin in these cheeses. In Cheese trial 1 the presence of lacticin 3147 in take test cheese was confirmed (using L. lactis AM2 as the indicator strain) at a level of approximately 1.280 AU/ml which remained constant in the cheese over the 28-week ripening period (FIG. 13A). In contrast, no anti-microbial activity was detected in the control cheese. Similarly, the amount of bacteriocin detected in cheese trial 2 was approximately 1.280 AU/ml which also remained constant over the ripening period (FIG. 13B). Thus the level of bacteriocin observed in the cheese corresponds to the number of NSLABs which occur in the cheese during ripening.
# [3] = test system: Streptococcus dysgalactiae M; experiment: Effectiveness on Streptococcus dysgalactiae M (plate counts); assay type: cell-based; settings: 10.240 AU/ml, stationary phase cells, 2 hours, 37° C.
# Experimental: FIG. 14B. Effect of adding lacticin 3147 (10.240 AU/ml) to stationary cells of Streptococcus dysgalactiae.
# 10 μl from a overnight culture was added to 490 μl of sterile 50 mM phosphate-buffer. pH 7.0 500 μl lacticin 3147 (10,000 AU/ml) was then added and plate counts were carried out after 0, 15, 30, 60, 90 and 120 minutes at 37° C. to assess cell viability.
# [4] = test system: Streptococcus dysgalactiae M; experiment: Frequency of resistance development of a mastitic strain; assay type: cell-based; settings: prolonged exposure
# From the text: As a result of the growing concern over the use of antibiotics for the treatment and prevention of disease in animals the potential of using lacticin 3147 in the prevention of bovine mastitis was investigated. To achieve this the bacteriocin was incorporated into teat seals preparations. These seals are manufactured by Cross Vetpharm (Broomhill Road, Tallaght, Dublin 24. Ireland) and act as a physical barrier in the cow against infection. The bacteriocin provides an additional anti-microbial barrier over the physical one provided by the seal itself. Incorporation of the bacteriocin into the teat seals first required the preparation of the bacteriocin in a highly concentrated and semi-purified form. The anti-microbial effectiveness of lacticin 3147 in the environment of the seal required the addition of either Tween 20 or 80 in concentrations of 2% (FIG. 14A). […] Having successfully prepared effective bacteriocin-containing teat seals a number of animal trials were then performed. These involved exposure of the modified seals to the animal for different time periods after which the seals were removed. […] Other aspects of this study focused on the frequency at which a mastitic strain can develop resistance to lacticin 3147 since this could limit its practical usefulness as an effective antimicrobial under certain conditions. […]
# [5] = test system: Catalase; experiment: Protease sensitivity assay (catalase); settings: enzyme 50 mg/ml
# Experimental: (§1) The following enzymes were dissolved in sterile distilled H2 O (SDW) to a final concentration of 50 mg/ml: Trypsin (type II, Sigma Chemical Co., Poole, Dorset, England), alpha-chymotrypsin (type II, Sigma), Proteinase K (Sigma), Pronase E (type XIV, Sigma), Catalase (Sigma). Pepsin was dissolved in 0.02N HCl, also to a final concentration of 50 mg/ml. All enzyme solutions were filter sterilised using disposable filters (Rotrand/Red rim 0.2 μm, Schleicher & Schuell). 20 μl aliquots of filtered cell-free bacteriocin solution and 20 μl of each enzyme solution were spotted 1 cm apart on GM17 agar plates and dried for 30 min. All plates were incubated overnight at 30° C. The plates move subsequently overlaid with the indicator organism. […] was evident as a zone of inhibition. Controls included plates with spots of either bacteriocin solution or enzyme solution.
# [6] = molecular target: T1, Proteinase K (Parengyodontium album, UniProt P06873); experiment: Protease sensitivity assay; settings: enzyme 50 mg/ml spotted beside bacteriocin; indicator L. lactis HP
# T1 construct: purchased Sigma
# T1 sequence (P06873 106-384): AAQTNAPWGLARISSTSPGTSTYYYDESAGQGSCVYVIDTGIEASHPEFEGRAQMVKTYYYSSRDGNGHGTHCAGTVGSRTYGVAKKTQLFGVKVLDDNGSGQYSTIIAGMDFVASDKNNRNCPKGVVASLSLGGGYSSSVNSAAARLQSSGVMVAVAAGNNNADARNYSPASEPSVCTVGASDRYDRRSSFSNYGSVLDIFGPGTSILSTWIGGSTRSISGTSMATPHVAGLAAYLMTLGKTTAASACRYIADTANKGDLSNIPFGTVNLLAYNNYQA
# Experimental: (§2) FIGS. 2A, 2B, 2C, 2D, and 2E. Protease Sensitivity Assay. Filtered cell-free bacteriocin solution and enzyme solution (A represents control, no enzyme; B, alpha-chymotrypsin; C, trypsin; D, pronase E and E represents proteinase K) were spotted 1 cm apart on GM17 agar plates and subsequently overlaid with the indicator L. lactis strain HP.
# as §1
# [7] = molecular target: T2, Trypsin (Sus scrofa, UniProt P00761); experiment: Protease sensitivity assay; settings: enzyme 50 mg/ml spotted beside bacteriocin; indicator L. lactis HP
# T2 construct: purchased Sigma Chemical Co., Poole, Dorset, England type II
# T2 sequence (P00761 9-231): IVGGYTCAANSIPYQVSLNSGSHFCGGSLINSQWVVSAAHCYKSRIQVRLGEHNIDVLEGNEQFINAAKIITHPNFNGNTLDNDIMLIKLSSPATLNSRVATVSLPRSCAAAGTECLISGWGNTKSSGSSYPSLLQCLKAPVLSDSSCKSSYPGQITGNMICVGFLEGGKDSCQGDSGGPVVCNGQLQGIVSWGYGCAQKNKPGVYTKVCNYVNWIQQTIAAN
# Experimental: as §2, §1
# [8] = molecular target: T3, alpha-chymotrypsin (Bos taurus, UniProt P00766, DEL14-15/DEL147-148); experiment: Protease sensitivity assay; settings: enzyme 50 mg/ml spotted beside bacteriocin; indicator L. lactis HP
# T3 construct: purchased Sigma type II
# Experimental: as §2, §1
# [9] = test system: Pronase E; experiment: Protease sensitivity assay; settings: enzyme 50 mg/ml spotted beside bacteriocin; indicator L. lactis HP
# Experimental: as §2, §1
# [10] = Bacteriocin activity in teat seals; settings: teat seal without Tween 20 or 80 (2% required)
# Experimental: FIG. 14A. Antimicrobial effectiveness of lacticin 3147 requires the presence of Tween Au/ml) has been added.
# TY (Tryptone 2.5 g/L, Yeast Extract 5 g/L, Glucose 10 g/L, b-glycerophosphate 19 g/L, MgSO4.7H2O 0.25 g/L, MnSO4.4H2O 0.05 g/L, pH 6.75) broth was prefiltered (15 filter/liter) with HA (Millipore) filters to remove proteins in the media which would bind to the filters. L. lactis DPC 3147 was then grown overnight in the filtered TY-broth. The culture was centrifuged at 10,000 rpm for 15 minutes and then filtered through HVLP filters (Millipore). The bacteriocin was then bound to HA filters (8 filters/liter) and subsequently harvested from the filters using acetone/5 mM Phosphate-Buffer, pH 7.0 (2:1). The mix was subsequently centrifuged and the acetone removed by evaporation. The resultant bacteriocin preparation was freeze-dried and dissolved in sterile distilled water. This was then assayed as above. To add bacteriocin into the teat seal 17,000 units of the bacteriocin prepared as above was added to the seal in a sterile petri disc. On mixing, the bacteriocin and seal formed as emulsion which was then aseptically transferred to a syringe (Cross Vetpharm).
# [11] = assay type: physicochemical; settings: pH 9, up to 100° C., 10 minutes; 100% = unheated at that pH
# Experimental: FIG. 6. Effect of heating at 60° C. to 121° C. for 10 minutes on the stability of lacticin 3147 at pH5, pH7, pH9. 100% activity is the activity at pH 5, 7 and 9 with no heating.
# A cell-free bacteriocin was exposed to various pH/temperature treatments. Samples were heated to 60, 70, 80, 90, 100, 110 and 121° C. at pH5, pH7 and pH9 for 10 min. Following treatment, all solutions were rapidly cooled and bacteriocin activity was assayed by the well diffusion method.
# Three samples of bacteriocin were brought to a pH of 5, 7 and 9 and aliquots of each were subsequently heated to 60° C., 70° C., 80° C., 90° C., 100° C., 110° C. and 121° C. for 10 minutes. The activity at each pH prior to heat treatment was measured and was taken to be 100% for that pH value. From the graphical representation in FIG. 6, it can be seen that lacticin 3147 is heat-stable, particularly at an acid pH.
# [12] = test system: Pepsin; experiment: Protease sensitivity assay; settings: enzyme 50 mg/ml in 0.02N HCl
# Experimental: as §1
# [13] = test system: L. lactis subsp. lactis MG1614; experiment: Spontaneous resistance on media containing lacticin 3147; assay type: cell-based, Lactococcus lactis; settings: MG1614 plated up to 10^8 -10^9 CFU/ml
# Experimental: Plates containing bacteriocin were prepared as follows. A cell-free, sterile bacteriocin solution was obtained from an overnight culture of L. lactis DPC3147 grown in GM17 by first centrifuging at 8000 g (Sorvall RC-5B) for 10 min. The resulting supernatant was then sterilized by filtering with Millipore HVLP filters (0.45 um) and tempered to 45° C. An equal volume was then added to double strength GM17 and the plates were poured. Where needed, streptomycin was added to agar at a concentration of 500 μg/ml.
# During initial genetic work with lacticin 3147, it was observed that the bacteriocin-producing property was an easily lost trait. Preliminary experiments were attempted to establish if bacteriocin production by DPC3147 was encoded on a conjugally transmissable piece of DNA. These conjugal matings involved using DPC3147 as the donor strain and the plasmid-free strain, L. lactis subsp. lactis MG1614, which is streptomycin resistant as the recipient. The selection of transconjugants from such matings was achieved using the plasmid-encoded bacteriocin immunity/resistance determinants as a selectable marker. This involved the incorporation of lacticin 3147 into the selective media. […] The incorporation of lacticin 3147 into selective media may thus form the basis for a novel food-grade marker system for use in genetic manipulation of lactococci. […]
# [14] = test system: NCDO496; experiment: MIC of pure nisin; assay type: cell-based, Lactococcus lactis; settings: pure nisin against strain NCDO496
# From the text: (§3) As expected, catalase had no effect on the antimicrobial activity of the 3147 bacteriocin thus eliminating the possibility that the antimicrobial activity may be due to hydrogen peroxide. In addition, none of the strains producing lacticin 3147 were capable of fermenting sucrose. This provides additional evidence that this bacteriocin is not nisin, since the genes encoding nisin (nis A) is linked to genes responsible for sucrose catabolism on the nisin-sucrosetransposon. Tn5276 (Horn et. al., 1991). Thus, all those Nip^+ (nisin-producing) strains studied to date are in addition Suc^+ (Sucrose-fermenting).
# [15] = test system: DPC3147; experiment: MIC of pure nisin; assay type: cell-based, Lactococcus lactis; settings: pure nisin against strain DPC3147
# From the text: as §3
Substance,Sensitivity relative to L. lactis HP [1],"Level of bacteriocin in cheese ([2]; cheese trial 1, constant over the 28-week ripening period)","Level of bacteriocin in cheese ([2]; cheese trial 2, constant over the ripening period)",Kill [3],Bacterial cells that developed increased tolerance [4],Effect of catalase on antimicrobial activity [5],Sensitivity to proteinase K [6],Sensitivity to trypsin [7],Sensitivity to alpha-chymotrypsin [8],Sensitivity to pronase E [9],Bacteriocin activity in treated seals [10],Activity maintained after heating [11],Sensitivity to pepsin [12],Growth of sensitive cells on media containing lacticin 3147 [13],minimum concentrations (MIC) required for inhibition [14],minimum concentrations (MIC) required for inhibition [15]
lacticin 3147,12.5%,approximately 1.280 AU/ml,approximately 1.280 AU/ml,99.99%,0.003%,no effect,sensitive,sensitive,sensitive,sensitive,negligible bacteriocin activity,more than 50%,not to pepsin,failed to grow,–,–
nisin,–,–,–,–,–,–,–,–,–,–,–,–,–,–,400 µg/mL,100 µg/mL
